Results reported in paper PMC7794297.
Read-outs that look alike come from different tables or passages of the source.

Legend:
glucose oxidase (GOx) = glucose oxidase (GOx) (Aspergillus niger, UniProt P13006)
[1] = biological target: bovine serum albumin (BSA) (Bos taurus, UniProt P02769); assay: BSA tolerance to DMSO, Trp emission fluorescence
[2] = 10 % v/v DMSO, Supplementary Figure 48 b
[3] = 20 % v/v DMSO, Supplementary Figure 48 b
[4] = 60 % v/v DMSO, Supplementary Figure 48 b

Chain of glucose oxidase (GOx) (P13006 17-605): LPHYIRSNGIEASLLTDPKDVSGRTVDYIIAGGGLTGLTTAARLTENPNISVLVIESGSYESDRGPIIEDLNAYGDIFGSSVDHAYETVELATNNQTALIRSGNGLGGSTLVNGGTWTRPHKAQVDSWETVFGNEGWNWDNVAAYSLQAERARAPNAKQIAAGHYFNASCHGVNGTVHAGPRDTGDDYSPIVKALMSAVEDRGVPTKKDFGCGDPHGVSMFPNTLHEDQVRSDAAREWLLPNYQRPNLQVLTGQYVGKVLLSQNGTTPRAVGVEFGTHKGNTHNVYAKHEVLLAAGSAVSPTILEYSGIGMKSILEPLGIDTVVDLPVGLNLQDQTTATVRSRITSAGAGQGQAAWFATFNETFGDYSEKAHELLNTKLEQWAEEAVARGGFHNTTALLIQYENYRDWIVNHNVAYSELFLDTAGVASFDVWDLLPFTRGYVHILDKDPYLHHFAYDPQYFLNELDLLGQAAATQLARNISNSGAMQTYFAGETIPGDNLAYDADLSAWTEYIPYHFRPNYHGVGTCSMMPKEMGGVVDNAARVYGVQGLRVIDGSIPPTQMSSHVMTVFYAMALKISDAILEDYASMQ
Chain of bovine serum albumin (BSA) (P02769 25-607): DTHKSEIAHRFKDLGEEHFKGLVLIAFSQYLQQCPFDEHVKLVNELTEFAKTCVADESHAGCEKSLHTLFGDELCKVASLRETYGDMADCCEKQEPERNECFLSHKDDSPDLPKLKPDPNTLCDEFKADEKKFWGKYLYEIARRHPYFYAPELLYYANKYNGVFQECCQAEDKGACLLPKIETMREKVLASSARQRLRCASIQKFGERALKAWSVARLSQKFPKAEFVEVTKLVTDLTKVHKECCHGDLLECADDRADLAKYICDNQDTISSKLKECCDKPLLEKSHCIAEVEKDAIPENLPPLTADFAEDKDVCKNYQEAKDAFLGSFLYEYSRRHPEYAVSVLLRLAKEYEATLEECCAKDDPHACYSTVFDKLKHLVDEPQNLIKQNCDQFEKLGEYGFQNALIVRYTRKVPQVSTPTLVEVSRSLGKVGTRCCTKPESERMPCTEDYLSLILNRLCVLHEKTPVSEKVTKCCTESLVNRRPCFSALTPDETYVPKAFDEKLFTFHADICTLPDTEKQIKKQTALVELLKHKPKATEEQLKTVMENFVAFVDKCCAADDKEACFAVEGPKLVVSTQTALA

For `C[S+](C)[O-]` [DMSO], the “DMSO concentration tolerated by GOx (no shift of Trp emission maximum)” value (glucose oxidase (GOx)) was “up to 20%”, the “Fluorescence Emission (Average Value)” value (glucose oxidase (GOx); 1 % v/v DMSO) was 4921084 and the “Wavelenght (nm) of Trp emission maximum” value (glucose oxidase (GOx); 1 % v/v DMSO) was 329 nm. The “Fluorescence Emission (Average Value)” value (glucose oxidase (GOx); 2.5 % v/v DMSO) was 5438068, the “Wavelenght (nm) of Trp emission maximum” value (glucose oxidase (GOx); 2.5 % v/v DMSO) was 329 nm and the “Wavelenght (nm) of Trp emission maximum” value (glucose oxidase (GOx); 2.5 % v/v DMSO, Supplementary Figure 48 b) was 338 nm. For the same molecule, the “Fluorescence Emission (Average Value)” value (glucose oxidase (GOx); 5 % v/v DMSO) was 4507601, the “Wavelenght (nm) of Trp emission maximum” value (glucose oxidase (GOx); 5 % v/v DMSO) was 329 nm and the “Wavelenght (nm) of Trp emission maximum” value (glucose oxidase (GOx); 5 % v/v DMSO, Supplementary Figure 48 b) was 337 nm. For the same molecule, the “Fluorescence Emission (Average Value)” value (glucose oxidase (GOx); 7.5 % v/v DMSO) was 4900904, the “Wavelenght (nm) of Trp emission maximum” value (glucose oxidase (GOx); 7.5 % v/v DMSO) was 329 nm and the “Fluorescence Emission (Average Value)” value (glucose oxidase (GOx); 10 % v/v DMSO) was 4964780. For the same molecule, the “Wavelenght (nm) of Trp emission maximum” value (glucose oxidase (GOx); 10 % v/v DMSO) was 329 nm, the “Fluorescence Emission (at maximum)” value (glucose oxidase (GOx); [2]) was 7117020 and the “Wavelenght (nm) of Trp emission maximum” value (glucose oxidase (GOx); [2]) was 336 nm. The “Fluorescence Emission (Average Value)” value (glucose oxidase (GOx); 20 % v/v DMSO) was 5321027, the “Wavelenght (nm) of Trp emission maximum” value (glucose oxidase (GOx); 20 % v/v DMSO) was 329 nm and the “Fluorescence Emission (at maximum)” value (glucose oxidase (GOx); [3]) was 7139475. For the same molecule, the “Wavelenght (nm) of Trp emission maximum” value (glucose oxidase (GOx); [3]) was 335 nm, the “Fluorescence Emission (Average Value)” value (glucose oxidase (GOx); 40 % v/v DMSO) was 6356217 and the “Wavelenght (nm) of Trp emission maximum” value (glucose oxidase (GOx); 40 % v/v DMSO) was 336 nm. The “Fluorescence Emission (Average Value)” value (glucose oxidase (GOx); 50 % v/v DMSO) was 10423932, the “Wavelenght (nm) of Trp emission maximum” value (glucose oxidase (GOx); 50 % v/v DMSO) was 337 nm and the “Fluorescence Emission (Average Value)” value (glucose oxidase (GOx); 60 % v/v DMSO) was 13490702. The “Wavelenght (nm) of Trp emission maximum” value (glucose oxidase (GOx); 60 % v/v DMSO) was 338 nm, the “Fluorescence Emission (at maximum)” value (glucose oxidase (GOx); [4]) was 8900408 and the “Wavelenght (nm) of Trp emission maximum” value (glucose oxidase (GOx); [4]) was 327 nm. For the same molecule, the “Fluorescence Emission (Average Value)” value (glucose oxidase (GOx); 70 % v/v DMSO) was 30698968, the “Wavelenght (nm) of Trp emission maximum” value (glucose oxidase (GOx); 70 % v/v DMSO) was 339 nm and the “Fluorescence Emission (Average Value)” value (glucose oxidase (GOx); 80 % v/v DMSO) was 28715570. For the same molecule, the “Wavelenght (nm) of Trp emission maximum” value (glucose oxidase (GOx); 80 % v/v DMSO) was 344 nm, the “Wavelenght (nm) of Trp emission maximum” value (glucose oxidase (GOx); 97 % v/v DMSO) was 349 nm and the “Fluorescence Emission (at maximum)” value (glucose oxidase (GOx); 97 % v/v DMSO, Supplementary Figure 48 b) was 24089455. For the same molecule, the “time until total completion of homodimerization” value (20% (v/v)) was 4 days, the Kobs (20% (v/v) DMSO, 0% Secox, 190 μM 3, Tris pH 7.8, 6 °C) was 0.068 ± 0.001 M⁻¹ s⁻¹ and the “DMSO concentration tolerated by BSA” value [1] was “up to 10%”.
